Experimental data: patent publication US10492511B2, “Preparations” (Symrise AG, priority 2012, dated 2019)

What was measured:
[1] = Reduction in apatite solubility (ALR), lactic acid consumption at pH 5; settings: 0.5 g hydroxyapatite in 300 ml water, 37° C., pH 5, 2 hours
Procedure: In order to determine the reduction in apatite stability, a blind test was first conducted. For this purpose, a reaction vessel with 300 ml of desalinated water was temperature-controlled to 37° C., and 0.5 g of hydroxyapatite powder (spec. surface area 60 m^2/g, Merck) was suspended therein. The pH value of the suspension was kept at a constant value of 5 by means of an automatic burette used to add lactic acid. The amount of 0.1 molar lactic acid consumed in order to stabilize the pH was registered with a recorder.
The reduction in apatite solubility (ALR in %) caused by the active ingredient was calculated as follows: ALR (%)=(Lu−Lb)*100/Lu (%)

[2] = Inhibition of crystal growth (KWI) of hydroxyapatite, KOH consumption at pH 7.4; settings: 100 mg hydroxyapatite, pH 7.4, 2 hours
Procedure: In order to determine inhibition of crystal growth (KWI in %) by hydroxyapatite, a blind test was also first conducted. For this purpose, a reaction vessel with 400 ml of a 0.0008 molar solution of KH2PO4 and 45 ml of a 0.012 molar solution of CaCl2 was prepared. This solution was adjusted to a pH of 7.4 by titration with a 0.05 molar solution of KOH. After a stable pH value had been maintained for at least 30 minutes, 100 mg of hydroxyapatite powder (spec. surface area 60 m^2/g, Merck) was added. The pH value of the suspension was kept at a constant value of 7.4 by means of an automatic burette which can be used to add 0.05 molar KOH solution. The amount of 0.05 molar KOH solution consumed in order to stabilize the pH was registered with a recorder. The consumption of KOH solution (Ku) registered after 2 hours was equivalent to the formation of hydroxyapatite (growth of crystals in the suspension).
Inhibition of crystal growth by the active ingredient was calculated as follows: KWI (%)=(Ku−Kb)*100/Ku (%)

[3] = 150 mg active ingredient mixture
[4] = 30 mg active ingredient mixture

| Structure (SMILES) | Apatite solubility [%] [1, 3] [%] | Crystal growth inhibition [%] ([2]; 5 mg active ingredient) | Crystal growth inhibition [%] ([2]; 6 mg active ingredient) | Apatite solubility [%] [1, 4] [%] |
| --- | --- | --- | --- | --- |
| CC1CCC(C(C)C)C2(C1)OCC(CO)O2 (centres unmarked) [Example V10, Menthone glyceryl acetal] | 13 | 9 | 17 |  |
| Cc1ccc(C(C)C)c(OCC(=O)N(Cc2cccs2)c2cc[nH]n2)c1 [Example V11, 2-(2-isopropyl-5-methylphenoxy)-N-(1H-pyrazol-3-yl)-N-(thiophen-2-yl)-methylacetamide] | 14 | 11 | 16 | 5 |
| COC(=O)C(C)O (centres unmarked) [Example V9, Methyl lactate] | 12 | 10 | 14 | 5 |
